The text below walks through data of publication PMC7024557, “Synthesis of Novel Structural Hybrids between Aza-Heterocycles and Azelaic Acid Moiety with a Specific Activity on Osteosarcoma Cells” (Molecules, 2020).

By IC50 is commonly meant the concentration that inhibits the measured activity by half. Usually melting point stands for the temperature of the solid-liquid transition.

The test system of series [1] is U2OS (human osteosarcoma). The experiment in a line: MTT assay, cell viability. The series is classed as cell-based. To be noted: for IC50: Homo sapiens, U2OS, after 48 h of treatment, n.a. = non active; for sensitivity of U2OS to the compound (IC50 analysis): only U2OS among tumor cell lines. The text has this:
(§1) Cell lines included in the evaluation of toxicity profiles were malignant U2OS, HT29, PC3, and IGROV1, and a normal human adult fibroblast cell line HDFa.
(§2) The human prostate cancer (PC3), human colon cancer (HT29), human bone osteosarcoma (U2OS), and normal human adult fibroblast (HDFa) cell lines were purchased from American Type Culture Collection (ATCC, Manassas, VA, USA), while the human ovarian cancer cell line (IGROV1) was kindly provided by Istituto Nazionale Tumori (IRCCS, Milano, Italy). Cells were cultured in Roswell Park Memorial Institute (RPMI)-1640 medium (Labtek Eurobio, Milan, Italy), supplemented with 10% fetal calf serum (FCS; Euroclone, Milano, Italy) and 2mM L-glutamine (Sigma-Aldrich, Milano, Italy), at 37 °C and 5% CO2 atmosphere. The compounds were dissolved in dimethyl sulfoxide (DMSO) in a 60 mM stock solution. In cell treatments, the final DMSO concentration never exceeded 0.1%.
(§3) U2OS were seeded at 1.5 × 10^4 cells/well in a 96-well culture plastic plate (Orange Scientific, Braine-l’Alleud, Belgium) and, after 24 h of growth, cells were exposed for additional 48 h to increasing concentrations of compounds (0.1 µM and […]) solubilized in RPMI-1640 medium. On the day of measurement, the culture medium was replaced with 0.1 mL of 3-(4,5-dimethylthiazolyl-2)-2,5-diphenyltetrazolium bromide (MTT, Sigma-Aldrich) dissolved in phosphate-buffered saline (PBS) at the concentration of 0.2 mg/mL, and samples were incubated for 2 h at 37 °C. To dissolve the blue-violet formazan salt crystals formed, 0.1 mL of isopropyl alcohol was added to each well and incubated for 20 min. The absorbance at 570 nm was measured using a multiwell plate reader (Wallac Victor2, PerkinElmer, Milano, Italia), and viability was compared with that of untreated cells, used as controls.

Series [2] concerns U2OS cells. The experiment in a line: Cell-cycle assay by flow cytometry (PI fluorescence, forward scatter). Conditions: 24 h; for mean channel of FS distribution (nuclear size): U2OS nuclei, 35 μM of 6, 50 μM of 5a or 8a, control cells 730; for effect on cell-cycle progression: U2OS, 35 μM of compound 6, 50 μM of 5a, 50 μM of 8a. Type of series: cell-based, human. How it is done: To infer whether their effects were due to interference with cell-cycle progression, DNA profiles of cultured cells were examined by flow cytometry. […] As clear from Figure 3, the nuclei in all cell-cycle phases were affected.
For the cell-cycle assay, U2OS cells were treated for 24 h with 35 μM of compound 6, 50 μM of 5a, or 50 μM of 8a, detached with 0.11% trypsin (Sigma-Aldrich, S.Louis, MO, USA)/0.02% ethylenediaminetetraacetic acid (EDTA) (Sigma-Aldrich, S.Louis, MO, USA), washed in PBS, and centrifuged. The pellet was resuspended in 0.01% Nonidet P-40 (Sigma-Aldrich, S.Louis, MO, USA), 10 μg/mL RNase (Sigma-Aldrich, S.Louis, MO), 0.1% sodium citrate, and 50 μg/mL propidium iodide (PI) (Sigma-Aldrich, S.Louis, MO, USA), for 30 min at room temperature in the dark. PI fluorescence and forward scatter (FS) signals were analyzed using a Beckman Coulter Epics XL-MCL flow cytometer. DNA distribution in the cell cycle was analyzed by the MODFIT 5.0 software. As the signal collected by a multichannel analyzer, the mean of the FS distribution is expressed as mean channel.
In general terms: Flow cytometry measures light scatter and fluorescence of single cells or particles in a stream.

In series [3] the test system is acetylated histones H2/H3 and H4 in U2OS cells. The experiment in a line: Histone acetylation, Western blot with anti-acetyl lysine antibody. The series is classed as cell-based, human. Conditions: 6 h, densitometry normalized on histone H1, vs control. The text has this: To identify acetylated histones, we analyzed the nuclear cell lysates by Western blot using a 15% polyacrylamide gel electrophoresis. After electrophoresis, the proteins were transferred to a nitrocellulose membrane and then immunoblotted with an anti-acetyl lysine monoclonal antibody. […] Differences in the density of bands are thought to reflect differences in protein acetylation levels. Histone acetylation signals were quantified by densitometry and normalized on histone H1. Histones H2/H3 acetylation increased by 28% upon treatment with 6 for 6 h with no effect on H4 acetylation, whereas compound 8a induced hyperacetylation by 30% on histone H4 only.
U2OS were cultured with 5a, 6, or 8a, for 6 h, and the histone fraction was immediately extracted. Cells were harvested using 0.11% trypsin and 0.02% EDTA, washed twice with 10 mM sodium butyrate (NaBu) in PBS, and nuclei were isolated according to Amellem et al.. The nuclear pellet was suspended in 0.1 mL of ice-cold water using a Vortex mixer, and concentrated H2SO4 was added to the suspension to give a final concentration of 0.4 N. After incubation at 4 °C for 1 h, the suspension was centrifuged for 5 min at 14,000× g, and the supernatant was taken and mixed with 1 mL of acetone. After overnight incubation at −20 °C, the coagulate material was collected by microcentrifugation and air-dried, and proteins were quantified using a protein assay kit (Bio-Rad, Hercules, CA, USA). Histones were analyzed as previously described. Briefly, histones were resolved by 15% SDS-PAGE and immunoblotted with anti-acetylated lysine antibody (Cell Signaling Technology, Beverly, MA, USA); the detection of immunoreactive bands was performed with a secondary antibody conjugated with horseradish peroxidase and developed with an enhanced chemiluminescence (ECL) system, developed with the enhanced chemiluminescence system Clarity Western (Bio-Rad, Hercules, CA, USA), and quantification was done by Fluor-S Max MultiImager (Bio-Rad). Histone acetylation signals were quantified by densitometry and normalized on histone H1.
Background: In western blotting, separated proteins are transferred to a membrane and probed.

Series [4] deals with U2OS cells. Description: Hoechst 33,342 nuclear staining, confocal microscopy. The series is classed as cell-based, human. Conditions: 24 h. How it is done: These effects induced by the above compounds on histone acetylation are not associated with events involved in apoptotic death.
Nuclear morphology was assayed using a specific dye Hoechst 33,342. U2OS treated cells were washed, fixed, and then stained with 1 µM Hoechst 33,342 (Sigma-Aldrich, St Louis, MO, USA) for 15 min. Samples were embedded in Mowiol and analyzed using a Nikon C1s confocal laser-scanning microscope, equipped with a Nikon PlanApo 40×, 1.4 numerical aperture (NA) oil immersion lens. Images were quantified by ImageJ software (IMAJ 1.x).

A further series has as its system U2OS cell line. On the set-up: method as in PMID 31646829, PMID 26298721. Conditions: ref [30],[31]; cited from earlier work.
Series [5] deals with HT29 (human colon adenocarcinoma). Description: MTT assay, cell viability. The series is classed as cell-based. Conditions: HT-29, after 48 h of treatment, n.a. = non active.
Text: as §1, §2, §3

The subject of series [6] is IGROV1 (human ovarian carcinoma). Description: MTT assay, cell viability. To be noted: IGROV-1, after 48 h of treatment, n.a. = non active. The series is classed as cell-based.
Text: as §1, §2, §3
(Tetrazolium dyes change colour on reduction, which living cells bring about.)

Series [7] concerns PC3 (human prostatic carcinoma). Description: MTT assay, cell viability. Type of series: cell-based. Conditions: after 48 h of treatment, n.a. = non active.
Text: as §1, §2, §3

Series [8] has as its system human osteosarcoma growth. On the set-up: method as in PMID 24344034, PMID 30697272. Conditions: ref [32],[33]; read-out: IC50, inhibition of human osteosarcoma growth; cited from earlier work.

In the case of `COC(=O)CCCCCCCC(=O)Nc1ncccn1` [5a, Methyl 9-oxo-9-(pyrimidin-2-ylamino)nonanoate], in [1], half-maximal inhibition (IC50) was put at 50 µM and the “sensitivity of U2OS to the compound (IC50 analysis)” value (“sensitivity of U2OS to the compound” for short) is given as “sensitive”. In the series on U2OS cells [2], the “mean channel of FS distribution (nuclear size)” value (“mean channel of FS distribution” below) is on record as 735 and the “effect on cell-cycle progression” value is “slight accumulation in the synthesis (S) phase”. In series [3], the “increase of histone H4 acetylation” value worked out at 22% and the “increase of histones H2/H3 acetylation” value amounted to 89%. Besides, the “nuclear morphology by Hoechst 33,342 staining” value (“nuclear morphology” for short) in the series on U2OS cells [4] is recorded as “dim staining of nuclei”.

As for `N.N.[Cl][Pt][Cl]` [Cisplatin], the IC50 in the series with U2OS cell line was 1.67 µM.

For `O=c1[nH]cc(F)c(=O)[nH]1` [5-fluorouracile], the IC50 in the series with U2OS cell line is 0.3 µM.

For `COc1cccc2c1C(=O)c1c(O)c3c(c(O)c1C2=O)C[C@@](O)(C(=O)CO)C[C@@H]3O[C@H]1C[C@H](N)[C@H](O)[C@H](C)O1` [doxorubicin], in the series with U2OS cell line, the IC50 is 0.5 µM.

In the case of `COC(=O)CCCCCCCC(=O)Nc1cncnc1` [5c, Methyl 9-oxo-9-(pyrimidin-5-ylamino)nonanoate], the melting point fell in the range of 78.6 to 80.2 °C. This compound had an IC50 in series [5] of more than 100 µM. This compound had an IC50 in series [6] of more than 100 µM. In series [7], this compound had an IC50 of more than 100 µM.

In the case of `COC(=O)CCCCCCCC(=O)Nc1ccncn1` [5b, Methyl 9-oxo-9-(pyrimidin-4-ylamino)nonanoate], the melting point fell in the range of 92 to 94.2 °C. This compound had an IC50 in [6] of more than 100 µM. The same compound registered an IC50 in [1] of more than 100 µM.

`COC(=O)CCCCCCCC(=O)n1nnc2ccccc21` [8b, Methyl 9-(1H-benzo[d][1,2,3]triazol-1-yl)-9-oxononanoate] yielded a melting point of 55.5 to 57.2 °C. The IC50 in series [6] was more than 100 µM.

For `COC(=O)CCCCCCCC(=O)n1cnc2ccccc21` [8a, Methyl 9-(1H-benzo[d]imidazol-1-yl)-9-oxononanoate], the values for the IC50 in series [5], in series [7] and in series [1] were more than 100 µM, more than 100 µM and 50 µM, respectively. For the same compound, the “sensitivity of U2OS to the compound” value in series [1] is recorded as “sensitive”. The “mean channel of FS distribution” value in the series with U2OS cells [2] is reported as 780. In the series with U2OS cells [2], the “effect on cell-cycle progression” value is “slight accumulation in the synthesis (S) phase”. Moreover, the “increase of histone H4 acetylation” value in series [3] turned out to be 30%. The “nuclear morphology” value in the series on U2OS cells [4] is on record as “dim staining of nuclei”.

On to `CC(/C=C/C(=O)NO)=C\[C@@H](C)C(=O)c1ccc(N(C)C)cc1` [trichostatin A], for which the IC50 in series [8] was 0.5 µM.

Turning to `CCCC(=O)[O-].[Na+]` [sodium butyrate], the IC50 in [8] was 5 µM.

On to `COC(=O)CCCCCCCC(=O)Nc1cccnc1` [4b, Methyl 9-oxo-9-(pyridin-3-ylamino)nonanoate], for which the melting point is 75.5 to 77.7 °C. The compound further gave an IC50 in series [5] of more than 100 µM. This compound also gave an IC50 in series [1] of more than 100 µM.

As to `COC(=O)CCCCCCCC(=O)Nc1ccccn1` [4a, Methyl 9-oxo-9-(pyridin-2-ylamino)nonanoate], the melting point fell in the range of 59 to 60 °C. For the same compound, in [5], the IC50 was more than 100 µM. The compound further yielded an IC50 in [1] of more than 100 µM.

`COC(=O)CCCCCCCC(=O)Nc1ccncc1` [4c, Methyl 9-oxo-9-(pyridin-4-ylamino)nonanoate] returned a melting point of 83 to 85 °C. Moreover, the 50% inhibitory concentration (IC50) in series [1] was more than 100 µM.

On to `COC(=O)CCCCCCCC(=O)N(C(=O)CCCCCCCC(=O)OC)c1ncccn1` [compound 6, Dimethyl 9,9’-(pyrimidin-2-ylazanediyl)bis(9-oxononanoate)], for which the IC50 in series [5] is more than 100 µM. Besides, in series [1], the IC50 was found to be 35 µM and the “sensitivity of U2OS to the compound” value is listed as “sensitive”. In addition, in the series with U2OS cells [2], the “mean channel of FS distribution” value turned out to be 905 and the “effect on cell-cycle progression” value was “increase in the gap 0/gap 1 (G0/G1) fraction, with concomitant decrease in the G2/mitosis (M) phase”. Moreover, in series [3], the “increase of histone H4 acetylation” value was “no effect” and the “increase of histones H2/H3 acetylation” value was 28%. In the series with U2OS cells [4], the “nuclear morphology” value is “increase in nuclear size”.
